Article PMC11600623 (Clinical and Translational Science, 2024)
Read-outs that look alike come from different tables or passages of the source.

How the values were obtained:
Assay type in all cases: in vivo, human
[1] = Population PK model of AC886
[2] = Influence of covariates on steady-state exposure metrics
[3] = Population PK model of quizartinib
[4] = final model, typical subject, f MET fixed to 0.5
[5] = newly diagnosed AML vs R/R AML and non-AML reference
[6] = residual unexplained variability
[7] = newly diagnosed AML vs R/R AML reference

CC(C)(CO)c1cc(NC(=O)Nc2ccc(-c3cn4c(n3)sc3cc(OCCN5CCOCC5)ccc34)cc2)no1 [AC886]
IIV (CV) for CLAC886 ([1]; AML patients): 74% | Interindividual variability of systemic clearance ([1]; abstract statement for both moieties): approximately 70 % coefficient of variation | Fractional change in CLAC886 for Black race ([1]; final model covariate effect): 0.488 | Fractional change in CLAC886 for non-AML subjects ([1]; final model covariate effect): 0.843 | Fractional change in CLAC886 with strong CYP3A inhibitors ([1]; final model covariate effect): 0.298 | Fractional change in V c,AC886 with strong CYP3A inhibitors ([1]; final model covariate effect): 2.79 | Q AC886 (apparent intercompartmental clearance) ([1]; final model, typical subject): 3.76 L/h | V p,AC886 (apparent peripheral volume of distribution) ([1]; final model, typical subject): 68.5 L | CLAC886 (apparent CL of AC886) [1, 4]: 4.61 L/h | V c,AC886 (apparent central volume of distribution) [1, 4]: 8.93 L | IIV CLAC886 AML patients ([1]; interindividual variability): 0.740 CV | IIV CLAC886 non-AML subjects ([1]; interindividual variability): 0.516 CV | IIV V c,AC886 ([1]; interindividual variability): 1.36 CV | Fractional change in f MET during Consolidation [1, 5]: 0.272 | Fractional change in f MET during Continuation [1, 5]: −0.249 | Fractional change in f MET during Induction [1, 5]: 0.715 | Additive RUV log scale AML patients [1, 6]: 0.452 CV | Additive RUV log scale non-AML subjects [1, 6]: 0.312 CV | Change of exposure compared to all other race categories ([2]; Black race, median difference): ~0.7 fold

CC(C)(C)c1cc(NC(=O)Nc2ccc(-c3cn4c(n3)sc3cc(OCCN5CCOCC5)ccc34)cc2)no1 [quizartinib]
IIV D1 [3]: 82 % coefficient of variation (CV) | IIV Q 1,quiz [3]: 69 % CV | IIV (CV) for F rel ([3]; AML patients): 44% | Age effect on V p1,quiz ([3]; exponential covariate model): 0.0152 1/year | D1 (duration of zero-order input to depot compartment) ([3]; final model): 0.710 h | Shape box-cox parameter for IIV on F rel for AML patients ([3]; final model): −1.28 | T lag (absorption lag time) ([3]; final model): 0.196 h | k a (first-order absorption rate constant) ([3]; final model): 1.10 h⁻¹ | Fractional change in CLquiz for Black race ([3]; final model covariate effect): −0.261 | Fractional change in CLquiz with strong CYP3A inhibitors ([3]; final model covariate effect): −0.301 | Fractional change in F rel with moderate CYP3A inhibitors ([3]; final model covariate effect): 0.116 | Fractional change in F rel with strong CYP3A inhibitors ([3]; final model covariate effect): 0.273 | Fractional change in V c,quiz for females ([3]; final model covariate effect): −0.169 | Fractional change in k a for non-AML subjects ([3]; final model covariate effect): −0.188 | Q 1,quiz (apparent intercompartmental clearance 1) ([3]; final model, typical subject): 40.7 L/h | Q 2,quiz (apparent intercompartmental clearance 2) ([3]; final model, typical subject): 0.757 L/h | V p1,quiz (apparent peripheral volume of distribution 1) ([3]; final model, typical subject): 312 L | V p2,quiz (apparent peripheral volume of distribution 2) ([3]; final model, typical subject): 91.9 L | Vd ([3]; human, plasma, oral): 371 L | clearance ([3]; human, plasma, oral): 111 mL/min | IIV D1 ([3]; interindividual variability): 0.821 CV | IIV F rel AML patients ([3]; interindividual variability): 0.444 CV | IIV F rel non-AML subjects ([3]; interindividual variability): 0.256 CV | IIV Q 1,quiz ([3]; interindividual variability): 0.691 CV | IIV T lag ([3]; interindividual variability): 0.647 CV | IIV V c,quiz ([3]; interindividual variability): 0.186 CV | IIV k a ([3]; interindividual variability): 0.423 CV | Fractional change in F rel during Consolidation [3, 7]: −0.192 | Fractional change in F rel during Continuation [3, 7]: 0.418 | Fractional change in F rel during Induction [3, 7]: −0.419 | F rel for non-AML subjects ([3]; relative to AML patients): 1.73 | Additive RUV log scale AML patients [3, 6]: 0.440 CV | Additive RUV log scale non-AML subjects [3, 6]: 0.102 CV | Increase of exposure ([2]; concomitant administration of strong CYP3A inhibitors): ~2 fold | Exposure in non-AML subjects compared to AML patients ([2]; higher in non-AML subjects): approximately 1.7 fold | Increase of steady-state area under the curve during the dosing interval (AUCss) ([2]; use of strong CYP3A inhibitors): 1.8 fold
